Experimental data: patent US20230085307A1, “PYRIDAZINONE COMPOUND AND HERBICIDE” (NISSAN CHEMICAL CORPORATION, priority 2019, published 2023)

Columns and labels:
chickweed [1] = assay: Test Example 5: herbicidal effect by foliage application, plastic box (Table 20, symbol P); type: in vivo, common chickweed (Stellaria media); conditions: foliage application, 320 g/ha, evaluated three weeks after application
Outline: (§1)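 Plants sown in sterilized diluvial soil and grown 14 days in a greenhouse at 25° C to 30° C, then sprayed on the foliage with the compound's emulsion diluted in water to a predetermined herbicide amount. Injury to weeds and crops scored three weeks after application on a visual rating scale.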

Japanese bulrush = assay: Test Example 1: herbicidal activity, application before weed generation under submerged conditions (Table 16, symbol B); type: in vivo, Japanese bulrush (Schoenoplectus juncoides); conditions: 320 g/ha applied herbicide
Outline: (§2)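 Submerged Wagner pots (alluvial soil, 4 cm water) sown with weed seeds and planted with 2.5-leaf rice seedlings; emulsifiable concentrate diluted in water applied to water surface on sowing day. Held in greenhouse at 25-30 °C; injury scored 0-5 by herbicidal rate after three weeks.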

false cleavers = assay: Test Example 5: herbicidal effect by foliage application, plastic box (Table 20, symbol Q); type: in vivo, false cleavers (Galium spurium); conditions: foliage application, 320 g/ha, evaluated three weeks after application
Outline: as §1

barnyard grass [2] = assay: Test Example 5: herbicidal effect by foliage application, plastic box (Table 20, symbol H); type: in vivo, barnyard grass (Echinochloa crus-galli); conditions: foliage application, 320 g/ha, evaluated three weeks after application
Outline: as §1

late watergrass = assay: Test Example 1: herbicidal activity, application before weed generation under submerged conditions (Table 16, symbol A); type: in vivo, late watergrass (Echinochloa oryzicola); conditions: 320 g/ha applied herbicide
Outline: as §2

windgrass [3] = assay: Test Example 5: herbicidal effect by foliage application, plastic box (Table 20, symbol L); type: in vivo, windgrass (Apera spica-venti); conditions: foliage application, 320 g/ha, evaluated three weeks after application
Outline: as §1

barnyard grass [4] = assay: Test Example 3: herbicidal effect by foliage application, Wagner pot (Table 18, symbol H); type: in vivo, barnyard grass (Echinochloa crus-galli); conditions: amount of applied herbicide 320 g/ha
Outline: (§3)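 Plants were sown in alluvial soil held under 0.1–0.5 cm standing water and grown 14 days in a greenhouse at 25–30 °C. An emulsifiable formulation, water-diluted to the set dose, was then sprayed onto the foliage, and effects were scored three weeks later using previously defined criteria.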

redroot pigweed [5] = assay: Test Example 4: herbicidal effect by soil treatment (Table 19, symbol N); type: in vivo, redroot pigweed (Amaranthus retroflexus); conditions: amount of applied herbicide 320 g/ha
Outline: (§4)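 Seeds were sown in sterilized diluvial soil and covered with about 1.5 cm of soil. An emulsion formulation diluted with water to a predetermined herbicide amount was sprayed evenly onto the soil surface. Plants grew in a greenhouse at 25° C. to 30° C., and the effect was scored three weeks after application using criteria from an earlier test.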

barnyard grass [6] = assay: Test Example 4: herbicidal effect by soil treatment (Table 19, symbol H); type: in vivo, barnyard grass (Echinochloa crus-galli); conditions: amount of applied herbicide 320 g/ha
Outline: as §4

chickweed [7] = assay: Test Example 4: herbicidal effect by soil treatment (Table 19, symbol P); type: in vivo, common chickweed (Stellaria media); conditions: amount of applied herbicide 320 g/ha
Outline: as §4

Italian ryegrass [8] = assay: Test Example 4: herbicidal effect by soil treatment (Table 19, symbol K); type: in vivo, Italian ryegrass (Lolium multiflorum); conditions: amount of applied herbicide 320 g/ha
Outline: as §4

green foxtail [9] = assay: Test Example 4: herbicidal effect by soil treatment (Table 19, symbol G); type: in vivo, green foxtail (Setaria viridis); conditions: amount of applied herbicide 320 g/ha
Outline: as §4

rice flat sedge = assay: Test Example 3: herbicidal effect by foliage application, Wagner pot (Table 18, symbol E); type: in vivo, rice flat sedge (Cyperus iria); conditions: amount of applied herbicide 320 g/ha
Outline: as §3

oval-leafed pondweed = assay: Test Example 1: herbicidal activity, application before weed generation under submerged conditions (Table 16, symbol C); type: in vivo, oval-leafed pondweed (Monochoria vaginalis); conditions: 320 g/ha applied herbicide
Outline: as §2

Chinese sprangletop = assay: Test Example 3: herbicidal effect by foliage application, Wagner pot (Table 18, symbol D); type: in vivo, chinese sprangletop (Leptochloa chinensis); conditions: amount of applied herbicide 320 g/ha
Outline: as §3

redroot pigweed [10] = assay: Test Example 5: herbicidal effect by foliage application, plastic box (Table 20, symbol N); type: in vivo, redroot pigweed (Amaranthus retroflexus); conditions: foliage application, 320 g/ha, evaluated three weeks after application
Outline: as §1

wild oat [11] = assay: Test Example 4: herbicidal effect by soil treatment (Table 19, symbol I); type: in vivo, wild oat (Avena fatua); conditions: amount of applied herbicide 320 g/ha
Outline: as §4

Italian ryegrass [12] = assay: Test Example 5: herbicidal effect by foliage application, plastic box (Table 20, symbol K); type: in vivo, Italian ryegrass (Lolium multiflorum); conditions: foliage application, 320 g/ha, evaluated three weeks after application
Outline: as §1

persian speedwell [13] = assay: Test Example 4: herbicidal effect by soil treatment (Table 19, symbol R); type: in vivo, Persian speedwell (Veronica persica); conditions: amount of applied herbicide 320 g/ha
Outline: as §4

blackgrass [14] = assay: Test Example 5: herbicidal effect by foliage application, plastic box (Table 20, symbol J); type: in vivo, blackgrass (Alopecurus myosuroides); conditions: foliage application, 320 g/ha, evaluated three weeks after application
Outline: as §1

windgrass [15] = assay: Test Example 4: herbicidal effect by soil treatment (Table 19, symbol L); type: in vivo, windgrass (Apera spica-venti); conditions: amount of applied herbicide 320 g/ha
Outline: as §4

southern crabgrass [16] = assay: Test Example 5: herbicidal effect by foliage application, plastic box (Table 20, symbol F); type: in vivo, southern crabgrass (Digitaria ciliaris); conditions: foliage application, 320 g/ha, evaluated three weeks after application
Outline: as §1

lambsquarters [17] = assay: Test Example 4: herbicidal effect by soil treatment (Table 19, symbol O); type: in vivo, lambsquarters (Chenopodium album); conditions: amount of applied herbicide 320 g/ha
Outline: as §4

blackgrass [18] = assay: Test Example 4: herbicidal effect by soil treatment (Table 19, symbol J); type: in vivo, blackgrass (Alopecurus myosuroides); conditions: amount of applied herbicide 320 g/ha
Outline: as §4

persian speedwell [19] = assay: Test Example 5: herbicidal effect by foliage application, plastic box (Table 20, symbol R); type: in vivo, Persian speedwell (Veronica persica); conditions: foliage application, 320 g/ha, evaluated three weeks after application
Outline: as §1

lambsquarters [20] = assay: Test Example 5: herbicidal effect by foliage application, plastic box (Table 20, symbol O); type: in vivo, lambsquarters (Chenopodium album); conditions: foliage application, 320 g/ha, evaluated three weeks after application
Outline: as §1

wild oat [21] = assay: Test Example 5: herbicidal effect by foliage application, plastic box (Table 20, symbol I); type: in vivo, wild oat (Avena fatua); conditions: foliage application, 320 g/ha, evaluated three weeks after application
Outline: as §1

velvetleaf [22] = assay: Test Example 5: herbicidal effect by foliage application, plastic box (Table 20, symbol M); type: in vivo, velvetleaf (Abutilon theophrasti); conditions: foliage application, 320 g/ha, evaluated three weeks after application
Outline: as §1

southern crabgrass [23] = assay: Test Example 4: herbicidal effect by soil treatment (Table 19, symbol F); type: in vivo, southern crabgrass (Digitaria ciliaris); conditions: amount of applied herbicide 320 g/ha
Outline: as §4

velvetleaf [24] = assay: Test Example 4: herbicidal effect by soil treatment (Table 19, symbol M); type: in vivo, velvetleaf (Abutilon theophrasti); conditions: amount of applied herbicide 320 g/ha
Outline: as §4

green foxtail [25] = assay: Test Example 5: herbicidal effect by foliage application, plastic box (Table 20, symbol G); type: in vivo, green foxtail (Setaria viridis); conditions: foliage application, 320 g/ha, evaluated three weeks after application
Outline: as §1

Question: `Cc1nn(C)c(=O)c(-c2c(-c3ccc4c(c3)OCO4)sc3ccc(Cl)cc23)c1O` [2-125] was tested. Which “herbicidal effect on P: chickweed” value (chickweed [1]) did it give?
Answer: 5 (Herbicidal rate of 90% or more (almost completely withered))

Question: What about the “Herbicidal effect on B: Japanese bulrush (grade 0-5)” value (Japanese bulrush) of the same compound?
Answer: 2 (Herbicidal rate of 20% or more and less than 40%)

Question: And the “herbicidal effect on Q: false cleavers” value (false cleavers)?
Answer: 3 (Herbicidal rate of 40% or more and less than 70%)

Question: What about the “herbicidal effect on H: barnyard grass” value (barnyard grass [2]) of the same compound?
Answer: 2 (Herbicidal rate of 20% or more and less than 40%)

Question: What about the “Herbicidal effect on A: late watergrass (grade 0-5)” value (late watergrass) of the same compound?
Answer: 0 (Herbicidal rate of 5% or less (almost no effect))

Question: What about the “herbicidal effect on L: windgrass” value (windgrass [3]) of the same compound?
Answer: 0 (Herbicidal rate of 5% or less (almost no effect))

Question: And the “herbicidal effect on H: barnyard grass” value (barnyard grass [4])?
Answer: 4 (Herbicidal rate of 70% or more and less than 90%)

Question: What about the “N: redroot pigweed, herbicidal effect rating” value (redroot pigweed [5]) of the same compound?
Answer: 5 (Herbicidal rate of 90% or more (almost completely withered))

Question: What about the “H: barnyard grass, herbicidal effect rating” value (barnyard grass [6]) of the same compound?
Answer: 0 (Herbicidal rate of 5% or less (almost no effect))

Question: And the “P: chickweed, herbicidal effect rating” value (chickweed [7])?
Answer: 5 (Herbicidal rate of 90% or more (almost completely withered))

Question: What about the “K: Italian ryegrass, herbicidal effect rating” value (Italian ryegrass [8]) of the same compound?
Answer: 0 (Herbicidal rate of 5% or less (almost no effect))

Question: And the “G: green foxtail, herbicidal effect rating” value (green foxtail [9])?
Answer: 0 (Herbicidal rate of 5% or less (almost no effect))

Question: And the “herbicidal effect on E: rice flat sedge” value (rice flat sedge)?
Answer: 5 (Herbicidal rate of 90% or more (almost completely withered))

Question: And the “Herbicidal effect on C: oval-leafed pondweed (grade 0-5)” value (oval-leafed pondweed)?
Answer: 0 (Herbicidal rate of 5% or less (almost no effect))

Question: And the “herbicidal effect on D: Chinese sprangletop” value (Chinese sprangletop)?
Answer: 3 (Herbicidal rate of 40% or more and less than 70%)

Question: What about the “herbicidal effect on N: redroot pigweed” value (redroot pigweed [10]) of the same compound?
Answer: 3 (Herbicidal rate of 40% or more and less than 70%)

Question: And the “I: wild oat, herbicidal effect rating” value (wild oat [11])?
Answer: 0 (Herbicidal rate of 5% or less (almost no effect))

Question: And the “herbicidal effect on K: Italian ryegrass” value (Italian ryegrass [12])?
Answer: 0 (Herbicidal rate of 5% or less (almost no effect))

Question: And the “R: persian speedwell, herbicidal effect rating” value (persian speedwell [13])?
Answer: 5 (Herbicidal rate of 90% or more (almost completely withered))

Question: What about the “herbicidal effect on J: blackgrass” value (blackgrass [14]) of the same compound?
Answer: 0 (Herbicidal rate of 5% or less (almost no effect))

Question: What about the “L: windgrass, herbicidal effect rating” value (windgrass [15]) of the same compound?
Answer: 0 (Herbicidal rate of 5% or less (almost no effect))

Question: What about the “herbicidal effect on F: southern crabgrass” value (southern crabgrass [16]) of the same compound?
Answer: 0 (Herbicidal rate of 5% or less (almost no effect))

Question: And the “O: lambsquarters, herbicidal effect rating” value (lambsquarters [17])?
Answer: 4 (Herbicidal rate of 70% or more and less than 90%)

Question: And the “J: blackgrass, herbicidal effect rating” value (blackgrass [18])?
Answer: 0 (Herbicidal rate of 5% or less (almost no effect))

Question: What about the “herbicidal effect on R: persian speedwell” value (persian speedwell [19]) of the same compound?
Answer: 5 (Herbicidal rate of 90% or more (almost completely withered))

Question: And the “herbicidal effect on O: lambsquarters” value (lambsquarters [20])?
Answer: 4 (Herbicidal rate of 70% or more and less than 90%)

Question: What about the “herbicidal effect on I: wild oat” value (wild oat [21]) of the same compound?
Answer: 0 (Herbicidal rate of 5% or less (almost no effect))

Question: What about the “herbicidal effect on M: velvetleaf” value (velvetleaf [22]) of the same compound?
Answer: 4 (Herbicidal rate of 70% or more and less than 90%)

Question: What about the “F: southern crabgrass, herbicidal effect rating” value (southern crabgrass [23]) of the same compound?
Answer: 0 (Herbicidal rate of 5% or less (almost no effect))

Question: What about the “M: velvetleaf, herbicidal effect rating” value (velvetleaf [24]) of the same compound?
Answer: 3 (Herbicidal rate of 40% or more and less than 70%)

Question: What about the “herbicidal effect on G: green foxtail” value (green foxtail [25]) of the same compound?
Answer: 0 (Herbicidal rate of 5% or less (almost no effect))
